The values that follow are results of earlier work, collected in publication PMC5762609 (Journal of Pharmaceutical Analysis, 2016).

For the compound `CC(=O)O[C@H]1C(=O)[C@]23C[C@H]2C[C@H]2OC[C@@]2(OC(C)=O)[C@H]3[C@H](OC(=O)c2ccccc2)[C@]2(O)C[C@H](OC(=O)[C@H](O)[C@@H](NC(=O)OC(C)(C)C)c3ccccc3)C(C)=C1C2(C)C` [Larotaxel], the Content in tissues entry is “higher in rich-blood tissues, such as heart, liver, spleen, lung and kidney”; the Tissue distribution entry is “distributed widely and rapidly”.
